The conditions of test [1]: US 20210169852 A; cited from earlier work.
Test [2] relates to FADU (HNSCC) cells. As to the kind of experiment: Inhibition of FADU cells by compounds. Format: cell-based. Conditions: PY-X (DXD) set to 1. On the procedure: (§1) On the day of the experiment, the cells were digested with 0.25% trypsin (Gibco, 25200-072), filtered through a 40 μm sieve, diluted with the corresponding medium to a cell density of 1×10^4 cells/mL, and inoculated into a 96-well white cell culture plate (Beyotime, FCP968), with 100 μL of cells added per well. The culture plate was placed in a 37° C. incubator (Thermo 311) containing 5% C02 and incubated for 24 hours. On the second day, the samples to be tested were prepared as a stock solution at a final concentration of 1M in DMSO (Sigma, D1650), then diluted with the corresponding medium to a final concentration of 200 nM, and subjected to four-fold serial dilutions, resulting in a total of 9 concentrations. 100 μL of the diluted sample was added to each well of the 96-well plate. The plate was placed in a 37° C. incubator containing 5% CO2 and incubated for 144 hours. The cell culture plate was then removed, and 100 μL of the cell viability assay reagent (CellTiter-Glo® Luminescent Cell Viability Assay, Promega, G7571) was added to each well. The reaction was carried out in the dark at room temperature for 5 minutes. Luminescence values were read using a microplate reader (TECAN SPARK), and data were processed using Graphpad Prism 7 software.

Test [3] deals with SW1573 (NSCLC) cells. As to the kind of experiment: Inhibition of SW1573 cells by compounds. Format: cell-based. Conditions: PY-X (DXD) set to 1. As to the method:
as §1

For test [4], the system named is PANC-1 (Pancreatic) cells. As to the kind of experiment: Inhibition of PANC-1 cells by compounds. Conditions: PY-X (DXD) set to 1. Format: cell-based. As to the method: as §1
Test [5] deals with SW1990 (Pancreatic) cells. As to the kind of experiment: Inhibition of SW1990 cells by compounds. Format: cell-based. Conditions: PY-X (DXD) set to 1. As to the method: as §1
For test [6], the system named is H1650 (NSCLC) cells. As to the kind of experiment: Inhibition of H1650 cells by compounds. Format: cell-based. Conditions: PY-X (DXD) set to 1. On the procedure: as §1
The subject of test [7] is N87 gastric cancer cells. As to the kind of experiment: Inhibitory activity of compounds on N87 gastric cancer cells (CellTiter-Glo, 144 h). Format: cell-based. Particulars: IC50 of PY-X (DXD) set to 1; values are ratios of measured IC50 to DXD; 144 h. On the procedure:
as §1
(§2) PY—Y is referenced in the document (WO2022170971A1); and PY-A is referenced in the document (WO2021148501A1).

The test system of test [8] is H358 (NSCLC) cells. As to the kind of experiment: Inhibition of H358 cells by compounds. Format: cell-based. Conditions: PY-X (DXD) set to 1. On the procedure: as §1
For test [9], the system named is H1975 (NSCLC) cells. As to the kind of experiment: Inhibition of H1975 cells by compounds. Format: cell-based. Conditions: PY-X (DXD) set to 1. As to the method: as §1
In test [10] the test system is DMS53 (SCLC) cells. As to the kind of experiment: Inhibition of DMS53 cells by compounds. Format: cell-based. Conditions: PY-X (DXD) set to 1. On the procedure: as §1
Test [11] relates to H23 (NSCLC) cells. As to the kind of experiment: Inhibition of H23 cells by compounds. Format: cell-based. Conditions: PY-X (DXD) set to 1. As to the method:
as §1

The test system of test [12] is MDA-MB-468 breast cancer cells. As to the kind of experiment: Inhibitory activity of compounds on MDA-MB-468 breast cancer cells (CellTiter-Glo). Conditions: IC50 of PY-X (DXD) set to 1; values are ratios of measured IC50 to DXD. Format: cell-based. On the procedure: as §1, §2
Test [13] deals with OVCAR3 (Ovarian) cells. As to the kind of experiment: Inhibition of OVCAR3 cells by compounds. Format: cell-based. Conditions: PY-X (DXD) set to 1. As to the method:
as §1

Test [14] relates to HT-29 (Colon) cells. As to the kind of experiment: Inhibition of HT-29 cells by compounds. Format: cell-based. Particulars: PY-X (DXD) set to 1. As to the method: as §1
Test [15] concerns A549 (NSCLC) cells. As to the kind of experiment: Inhibition of A549 cells by compounds. Format: cell-based. Particulars: PY-X (DXD) set to 1. As to the method: as §1
Test [16] deals with H82 (SCLC) cells. As to the kind of experiment: Inhibition of H82 cells by compounds. Format: cell-based. Conditions: PY-X (DXD) set to 1. On the procedure:
as §1

For test [17], the system named is Colo-205 (Colon) cells. As to the kind of experiment: Inhibition of Colo-205 cells by compounds. Format: cell-based. Particulars: PY-X (DXD) set to 1. As to the method:
as §1

The subject of test [18] is PA-1 (Ovarian) cells. As to the kind of experiment: Inhibition of PA-1 cells by compounds. Conditions: PY-X (DXD) set to 1. Format: cell-based. On the procedure: as §1
Test [19] deals with H1437 (NSCLC) cells. As to the kind of experiment: Inhibition of H1437 cells by compounds. Format: cell-based. Particulars: PY-X (DXD) set to 1. On the procedure: as §1

With `CC[C@@]1(O)C(=O)OCc2c1cc1n(c2=O)Cc2c-1nc1cc(F)c(C)c3c1c2[C@@H](NC(=O)CO)CC3` [DXd], the “times less active than exatecan” value in test [1] is 2-4.

Take `CC[C@@]1(O)C(=O)OCc2c1cc1n(c2=O)Cc2c-1nc1cc(F)c(O)c3c1c2CCC3` [PY-13, (S)-9-ethyl-5-fluoro-4,9-dihydroxy-1,2,3,9,12,15-hexahydro-10H,13H-benzo[de]pyrano[3′,4:6,7]indolizino[1,2-b]quinolin-10,13-dione]: in test [2], the “IC50 in FADU cells, ratio to DXD” value turned out to be 0.1648. Moreover, in test [3], the “IC50 in SW1573 cells, ratio to DXD” value is given as 0.1570. In addition, the “IC50 in PANC-1 cells, ratio to DXD” value in test [4] turned out to be 0.0810. The “IC50 in SW1990 cells, ratio to DXD” value in test [5] was determined as 0.1255. The “IC50 in H1650 cells, ratio to DXD” value in test [6] is on record as 0.0415. The “IC50 on N87 cells, ratio to DXD” value in test [7] is 0.0852. For the same compound, the “IC50 in H358 cells, ratio to DXD” value in [8] was determined as 0.1062. Also, in test [9], the “IC50 in H1975 cells, ratio to DXD” value was found to be 0.0426. Moreover, the “IC50 in DMS53 cells, ratio to DXD” value in [10] was 0.1624. Besides, in [11], the “IC50 in H23 cells, ratio to DXD” value amounted to 0.0819. Also, in [12], the “IC50 on 468 cells, ratio to DXD” value came out at 0.0798. Moreover, in test [13], the “IC50 in OVCAR3 cells, ratio to DXD” value is 0.0560. Also, the “IC50 in HT-29 cells, ratio to DXD” value in [14] turned out to be 0.1434. For the same compound, the “IC50 in A549 cells, ratio to DXD” value in test [15] came to 0.0899. In addition, in test [16], the “IC50 in H82 cells, ratio to DXD” value is listed as 0.1364. In [17], the “IC50 in Colo-205 cells, ratio to DXD” value turned out to be 0.1643. Besides, in [18], the “IC50 in PA-1 cells, ratio to DXD” value was 0.1600. For the same compound, the “IC50 in H1437 cells, ratio to DXD” value in test [19] is recorded as 0.0969.

Source of the values: patent publication US20260199500A1, “Camptothecin Derivative, Conjugate Thereof, Preparation Method Therefor and Medical Use Thereof” (priority 2023, published 2026).
